Holding throughout (assay type): cell-based
In one test the target is T1, M3 muscarinic receptor (Homo sapiens, UniProt P20309).
T1 construct: expressed in transfected cells; host or cells: CHO (M3-CHO)
Put plainly: Functional mobilization of intracellular calcium (FLIPR) in CHO cells expressing M3. The conditions noted are these: for M3 Activity: CHO cells expressing M3, FLIPR calcium assay; for Emax: CHO, 100% efficacy = maximum response obtained with the Carbachol control. An outline of the steps: (§1)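 Recombinant CHO cells loaded with Fluo-3 AM or Calcium 3 dye in pH 7.4 buffer containing 1 mM probenecid, with 0.5% final DMSO. For agonism, compound is added directly. For inhibition, it is preincubated 15 min, or co-applied, before carbachol at EC80. FLIPR fluorescence (ex 488, em 540 nm) is recorded for 60 s.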
Background: Calcium assays in cells follow changes in intracellular calcium, usually with a dye or a luminescent sensor.

The next test concerns the target T2, M2 muscarinic receptor (Homo sapiens, UniProt P08172).
T2 construct: expressed in transfected cells; host or cells: CHO (M2-CHO)
T2 sequence (P08172 1-466): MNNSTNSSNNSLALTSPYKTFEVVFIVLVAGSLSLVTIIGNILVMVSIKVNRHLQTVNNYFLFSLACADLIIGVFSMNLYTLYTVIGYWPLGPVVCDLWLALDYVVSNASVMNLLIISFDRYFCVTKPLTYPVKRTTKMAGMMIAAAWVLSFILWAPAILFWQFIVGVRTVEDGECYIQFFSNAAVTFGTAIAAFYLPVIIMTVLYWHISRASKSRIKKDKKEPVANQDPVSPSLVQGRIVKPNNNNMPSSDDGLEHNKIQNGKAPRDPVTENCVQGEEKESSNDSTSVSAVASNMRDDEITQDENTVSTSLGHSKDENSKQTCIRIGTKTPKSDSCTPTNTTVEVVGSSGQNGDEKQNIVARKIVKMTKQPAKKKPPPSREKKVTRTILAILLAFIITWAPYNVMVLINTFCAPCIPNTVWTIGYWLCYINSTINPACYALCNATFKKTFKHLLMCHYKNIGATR
The test can be described thus: Functional mobilization of intracellular calcium (FLIPR) in CHO cells expressing M2. The conditions noted are these: for M2 Activity: CHO cells expressing M2, FLIPR calcium assay; for Emax: CHO, 100% efficacy = maximum response obtained with the Carbachol control. An outline of the steps:
as §1

For another test, the target named is T3, M4 muscarinic receptor (Homo sapiens, UniProt P08173).
T3 construct: expressed in transfected cells; host or cells: CHO (M4-CHO)
T3 sequence (P08173 1-479): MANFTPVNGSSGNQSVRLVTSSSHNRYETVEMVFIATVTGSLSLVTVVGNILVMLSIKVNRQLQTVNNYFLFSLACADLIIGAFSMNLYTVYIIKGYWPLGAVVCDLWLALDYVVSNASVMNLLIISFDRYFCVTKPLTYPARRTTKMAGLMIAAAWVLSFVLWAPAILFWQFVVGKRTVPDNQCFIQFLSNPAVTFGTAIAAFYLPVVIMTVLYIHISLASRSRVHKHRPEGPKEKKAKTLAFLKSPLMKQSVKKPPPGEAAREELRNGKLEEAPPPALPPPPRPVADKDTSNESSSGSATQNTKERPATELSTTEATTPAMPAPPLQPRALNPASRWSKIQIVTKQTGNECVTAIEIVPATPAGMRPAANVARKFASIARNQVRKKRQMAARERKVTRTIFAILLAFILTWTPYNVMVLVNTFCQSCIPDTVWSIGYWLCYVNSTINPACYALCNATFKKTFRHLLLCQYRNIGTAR
Put plainly: Functional mobilization of intracellular calcium (FLIPR) in CHO cells expressing M4. The settings on record: for M4 Activity: CHO cells expressing M4, FLIPR calcium assay; for Emax: CHO, 100% efficacy = maximum response obtained with the Carbachol control. An outline of the steps:
as §1

For a further test, the target named is T4, M1 muscarinic receptor (Homo sapiens, UniProt P11229).
T4 construct: expressed in transfected cells; host or cells: CHO (M1-CHO)
T4 sequence (P11229 1-460): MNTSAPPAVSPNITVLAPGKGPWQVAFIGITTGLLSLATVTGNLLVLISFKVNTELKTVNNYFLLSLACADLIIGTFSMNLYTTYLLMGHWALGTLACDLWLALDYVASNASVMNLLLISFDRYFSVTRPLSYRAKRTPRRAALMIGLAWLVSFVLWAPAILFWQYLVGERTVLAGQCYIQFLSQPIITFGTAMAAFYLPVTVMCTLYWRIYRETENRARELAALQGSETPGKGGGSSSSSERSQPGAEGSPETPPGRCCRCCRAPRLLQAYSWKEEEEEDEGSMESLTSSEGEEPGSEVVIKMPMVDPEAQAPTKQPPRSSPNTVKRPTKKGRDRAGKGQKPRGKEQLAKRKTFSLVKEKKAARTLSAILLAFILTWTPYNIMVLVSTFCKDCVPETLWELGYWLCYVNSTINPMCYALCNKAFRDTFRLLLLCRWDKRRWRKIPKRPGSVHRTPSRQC
The test can be described thus: Functional mobilization of intracellular calcium (FLIPR) in CHO cells expressing M1. The settings on record: for M1 Activity: CHO cells expressing M1, FLIPR calcium assay; for Emax: CHO, 100% efficacy = maximum response obtained with the Carbachol control. An outline of the steps: as §1

Each structure is given as a SMILES string.

T1 sequence (P20309 whole entry): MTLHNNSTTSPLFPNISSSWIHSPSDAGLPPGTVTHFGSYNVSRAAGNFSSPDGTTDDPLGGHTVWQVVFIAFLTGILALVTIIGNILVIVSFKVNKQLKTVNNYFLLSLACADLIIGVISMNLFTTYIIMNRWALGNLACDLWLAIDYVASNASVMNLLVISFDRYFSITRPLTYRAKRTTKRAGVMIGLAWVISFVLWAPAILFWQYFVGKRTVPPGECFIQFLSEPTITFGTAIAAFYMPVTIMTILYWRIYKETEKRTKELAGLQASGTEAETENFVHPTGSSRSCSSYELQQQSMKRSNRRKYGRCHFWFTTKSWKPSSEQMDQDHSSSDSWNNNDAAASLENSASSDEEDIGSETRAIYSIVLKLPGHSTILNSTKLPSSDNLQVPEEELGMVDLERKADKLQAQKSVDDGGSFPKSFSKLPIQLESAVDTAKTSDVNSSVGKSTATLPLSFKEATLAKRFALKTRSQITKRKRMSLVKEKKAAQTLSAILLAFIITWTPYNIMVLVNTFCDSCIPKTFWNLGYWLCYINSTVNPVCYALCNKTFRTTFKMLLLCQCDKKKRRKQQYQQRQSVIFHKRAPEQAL

Take `CC(=O)N[C@H]1CC2(CCN(CC(C)CCC=C(C)C)CC2)c2ccccc21` (stereo partly drawn) [compound 273]: at M3 muscarinic receptor, the “M3 Activity” value is “+ (activity was measured to be greater than 5.0 μM)” and the maximum response (Emax) is less than 25%. Also, at M2 muscarinic receptor, the “M2 Activity” value is recorded as “+ (activity was measured to be greater than 5.0 μM)” and the maximal response (Emax) was less than 25%. On M4 muscarinic receptor, the “M4 Activity” value is “+++ (activity was measured to be less than 2.0 μM)” and the Emax lay within 25 to 100%. Further, on M1 muscarinic receptor, the “M1 Activity” value was “+++ (activity was measured to be less than 2.0 μM)” and the maximum response (Emax) was 25 to 100%.
Turning to `CC(C)(C)OC(=O)N1CCC2(CC1)C[C@H](NC(=O)N1CCCC1)c1ccccc12` [compound 276], at M3 muscarinic receptor, the “M3 Activity” value is “+ (activity was measured to be greater than 5.0 μM)” and the maximal effect (Emax) is less than 25%. For the same molecule, at M2 muscarinic receptor, the “M2 Activity” value is given as “+ (activity was measured to be greater than 5.0 μM)” and the maximum response (Emax) is less than 25%. In addition, on M4 muscarinic receptor, the “M4 Activity” value was “+ (activity was measured to be greater than 5.0 μM)” and the Emax was less than 25%. Further, at M1 muscarinic receptor, the “M1 Activity” value is “+ (activity was measured to be greater than 5.0 μM)” and the Emax is less than 25%.
For `CC(=O)N[C@H]1CC2(CCN(CCC(C)C)CC2)c2ccccc21` [compound 277], at M3 muscarinic receptor, the “M3 Activity” value is on record as “+ (activity was measured to be greater than 5.0 μM)” and the maximal response (Emax) is less than 25%. Besides, at M2 muscarinic receptor, the “M2 Activity” value is “+ (activity was measured to be greater than 5.0 μM)” and the Emax is less than 25%. Besides, at M4 muscarinic receptor, the “M4 Activity” value is “+++ (activity was measured to be less than 2.0 μM)” and the maximum response (Emax) was 25 to 100%. At M1 muscarinic receptor, the “M1 Activity” value is reported as “++ (activity was measured to be from 2.0 μM to 5.0 μM)” and the maximum response (Emax) was 25 to 100%.
On to `CC(C)(C)OC(=O)N1CCC2(CC1)C[C@H](NC(=O)C1CC1)c1ccccc12` [compound 279], for which, on M3 muscarinic receptor, the “M3 Activity” value was “+ (activity was measured to be greater than 5.0 μM)” and the Emax was less than 25%. At M2 muscarinic receptor, the “M2 Activity” value is reported as “+ (activity was measured to be greater than 5.0 μM)” and the maximal effect (Emax) is less than 25%. At M4 muscarinic receptor, the “M4 Activity” value was “+ (activity was measured to be greater than 5.0 μM)” and the Emax is less than 25%. Also, at M1 muscarinic receptor, the “M1 Activity” value is given as “+ (activity was measured to be greater than 5.0 μM)” and the maximum response (Emax) was less than 25%.
Turning to `CC(=O)N[C@@H]1CCC2(CCN(C(=O)OC(C)(C)C)CC2)c2ccccc21` [compound 280], on M3 muscarinic receptor, the “M3 Activity” value was “+ (activity was measured to be greater than 5.0 μM)” and the Emax is less than 25%. Moreover, on M2 muscarinic receptor, the “M2 Activity” value is on record as “+ (activity was measured to be greater than 5.0 μM)” and the maximum response (Emax) is less than 25%. For the same molecule, on M4 muscarinic receptor, the “M4 Activity” value is “+ (activity was measured to be greater than 5.0 μM)” and the Emax was less than 25%. For the same molecule, on M1 muscarinic receptor, the “M1 Activity” value is given as “+ (activity was measured to be greater than 5.0 μM)” and the Emax is less than 25%.
Consider `CC(=O)N[C@H]1CC2(CCN(CCC(C)CCC=C(C)C)CC2)c2ccccc21` (stereo partly drawn) [compound 282], for which, at M3 muscarinic receptor, the “M3 Activity” value is listed as “+ (activity was measured to be greater than 5.0 μM)” and the Emax was less than 25%. Moreover, on M2 muscarinic receptor, the “M2 Activity” value was “+ (activity was measured to be greater than 5.0 μM)” and the Emax is less than 25%. On M4 muscarinic receptor, the “M4 Activity” value is recorded as “+ (activity was measured to be greater than 5.0 μM)” and the Emax is less than 25%. At M1 muscarinic receptor, the “M1 Activity” value was “+++ (activity was measured to be less than 2.0 μM)” and the maximal response (Emax) was in the range of 25 to 100%.
Turning to `Cc1ccc2c(c1)C(=O)CC21CCN(CCC(C)(C)C)CC1` [compound 288], at M3 muscarinic receptor, the “M3 Activity” value is “+ (activity was measured to be greater than 5.0 μM)” and the maximum response (Emax) was less than 25%. Also, on M2 muscarinic receptor, the “M2 Activity” value is reported as “+ (activity was measured to be greater than 5.0 μM)” and the maximal response (Emax) was less than 25%. On M4 muscarinic receptor, the “M4 Activity” value was “++ (activity was measured to be from 2.0 μM to 5.0 μM)” and the maximal effect (Emax) is 25 to 100%. At M1 muscarinic receptor, the “M1 Activity” value is listed as “+ (activity was measured to be greater than 5.0 μM)” and the Emax lay within 25 to 100%.
Consider `CC(=O)N[C@H]1CC2(CCN(CC(=O)N(C)C)CC2)c2ccccc21` [compound 289], for which, on M3 muscarinic receptor, the “M3 Activity” value was “+ (activity was measured to be greater than 5.0 μM)” and the Emax was less than 25%. On M2 muscarinic receptor, the “M2 Activity” value is recorded as “+ (activity was measured to be greater than 5.0 μM)” and the Emax is less than 25%. For the same molecule, at M4 muscarinic receptor, the “M4 Activity” value was “+ (activity was measured to be greater than 5.0 μM)” and the Emax is less than 25%. Moreover, at M1 muscarinic receptor, the “M1 Activity” value is listed as “+ (activity was measured to be greater than 5.0 μM)” and the maximal effect (Emax) was less than 25%.
As to `CC(=O)NC1CC2(CCN(C(C)C(C)C)CC2)c2ccccc21` (stereo not drawn) [compound 290], on M3 muscarinic receptor, the “M3 Activity” value is reported as “+ (activity was measured to be greater than 5.0 μM)” and the Emax was less than 25%. Also, on M2 muscarinic receptor, the “M2 Activity” value is reported as “+ (activity was measured to be greater than 5.0 μM)” and the Emax is less than 25%. Also, at M4 muscarinic receptor, the “M4 Activity” value is reported as “+ (activity was measured to be greater than 5.0 μM)” and the Emax was 25 to 100%. Also, at M1 muscarinic receptor, the “M1 Activity” value is “+ (activity was measured to be greater than 5.0 μM)” and the Emax was in the range of 25 to 100%.
`CC(C)(C)CCN1CCC2(CC1)C[C@H](NC(=O)c1ccoc1)c1ccccc12` [compound 292]: at M3 muscarinic receptor, the “M3 Activity” value was “+ (activity was measured to be greater than 5.0 μM)” and the maximum response (Emax) was less than 25%. Moreover, on M2 muscarinic receptor, the “M2 Activity” value is recorded as “+ (activity was measured to be greater than 5.0 μM)” and the maximal effect (Emax) was less than 25%. Further, at M4 muscarinic receptor, the “M4 Activity” value is “+ (activity was measured to be greater than 5.0 μM)” and the Emax was less than 25%. In addition, on M1 muscarinic receptor, the “M1 Activity” value is reported as “+ (activity was measured to be greater than 5.0 μM)” and the Emax is less than 25%.
Take `CC(C)CCN1CCC2(CC1)C[C@H](NC(=O)N(C)C)c1ccccc12` [compound 293]: at M3 muscarinic receptor, the “M3 Activity” value is listed as “+ (activity was measured to be greater than 5.0 μM)” and the Emax is less than 25%. Besides, at M2 muscarinic receptor, the “M2 Activity” value is listed as “+ (activity was measured to be greater than 5.0 μM)” and the maximal response (Emax) is less than 25%. On M4 muscarinic receptor, the “M4 Activity” value is “+ (activity was measured to be greater than 5.0 μM)” and the maximal response (Emax) was less than 25%. On M1 muscarinic receptor, the “M1 Activity” value is reported as “+ (activity was measured to be greater than 5.0 μM)” and the Emax is less than 25%.
On to `CC(C)CCN1CCC2(CC1)C[C@H](NC(=O)N1CCCC1)c1ccccc12` [compound 294], for which, on M3 muscarinic receptor, the “M3 Activity” value is on record as “+ (activity was measured to be greater than 5.0 μM)” and the Emax was less than 25%. Besides, at M2 muscarinic receptor, the “M2 Activity” value is listed as “+ (activity was measured to be greater than 5.0 μM)” and the maximal response (Emax) was less than 25%. Moreover, on M4 muscarinic receptor, the “M4 Activity” value was “+ (activity was measured to be greater than 5.0 μM)” and the Emax is less than 25%. In addition, on M1 muscarinic receptor, the “M1 Activity” value is “+ (activity was measured to be greater than 5.0 μM)” and the Emax is less than 25%.

The term Emax denotes the greatest response seen or fitted, relative to the assay's reference.

The values are drawn from patent publication US8003660B2, “Modulators of muscarinic receptors” (Vertex Pharmaceuticals Incorporated, priority 2006, dated 2011).
